The supplement of paper PMC10933113
Counter-ions that a name gives are not always drawn. ± gives the uncertainty stated by the source.

Assays:
THP-1 = test: efficacy of IL-8 induction relative to DMSO (% activity); higher = stronger induction; details: exposure time: 18 h
[1] = test system: cysteine peptide Ac-RFAACAA-COOH; test: efficacy of cysteine peptide change (negative = depletion) (% activity); higher = less depletion; details: incubation time: 24 h
[2] = test system: KeratinoSens (HaCaT ARE-luciferase) cells; test: efficacy of ARE luciferase induction relative to DMSO (% activity over DMSO); higher = stronger induction; details: exposure time: 24 h
[3] = test system: lysine peptide Ac-RFAAKAA-COOH; test: efficacy of lysine peptide change (negative = depletion) (% activity); higher = less depletion; details: incubation time: 24 h
[4] = test system: KeratinoSens (HaCaT ARE-luciferase) cells; test: cytotoxicity AC50 (CellTiter-Fluor viability); higher = less cytotoxic; details: exposure time: 24 h

SMILES | efficacy of IL-8 induction (THP-1) | efficacy of cysteine peptide change [1] | efficacy of ARE luciferase induction [2] | efficacy of lysine peptide change [3] | cytotoxicity AC50 [4] [µM]
CCCCCCCCCCC=CC1CC(=O)OC1=O (stereo unspecified) [3-(Dodecenyl)dihydro-2,5-furandione] | -1.83 ± 3.2 | 0 | 3.3 ± 5.7 | -22.7 ± 13 | –
CC(C)(C)c1ccc(C(=O)CCCCl)cc1 [4'-Tert-butyl-4-chlorobutyrophenone] | 0 | 94.9 | 38.6 ± 9.4 | 17.7 ± 16 | –
CCCCCCOc1ccc(O)cc1 [4-(Hexyloxy)phenol] | 0.98 ± 10 | – | 20 ± 18 | – | –
Nc1ccc(-c2ccccc2)cc1 [4-Biphenylamine hydrochloride] | 0 | -6.9 ± 6 | 12.3 ± 11 | -3.96 ± 11 | –
Nc1ccc([N+](=O)[O-])cc1N [4-Nitro-1,2-phenylenediamine] | 3.64 ± 4.4 | -16.4 ± 5.1 | 46.2 ± 27 | 1.34 ± 22 | 41.6 ± 5.3
COc1ccc2[nH]cc(CCN(C(C)C)C(C)C)c2c1 [5-Methoxy-N,N-diisopropyltryptamine hydrochloride] | 1.45 ± 2.5 | -5.5 ± 9.5 | 19.1 ± 7.6 | 138 ± 57 | –
O=C(O)c1ccc(=O)[nH]c1 [6-Hydroxynicotinic acid] | 0 | 12.2 ± 12 | 27.8 ± 30 | -6.78 ± 17 | –
CCc1cccc(CC)c1N(COC)C(=O)CCl [Alachlor] | 0 | 0 | 35.9 ± 29 | 64.4 ± 24 | 48.5 ± 6.7
CC(C)c1ccc2oc3nc(N)c(C(=O)O)cc3c(=O)c2c1 [Amlexanox] | 8.52 ± 7.4 | 4.82 ± 8.3 | 28.6 ± 29 | 7.32 ± 13 | –
CCc1oc2ccccc2c1C(=O)c1cc(I)c(O)c(I)c1 [Benziodarone] | 0 | -8.72 ± 7.7 | 17.7 ± 22 | -10.2 ± 9.7 | –
CCCCCCCCCCCCCCCC[N+](C)(C)Cc1ccccc1 [Benzylhexadecyldimethylammonium chloride] | 45 ± 9.3 | 8.87 ± 8.5 | -36.7 ± 2.6 | 66 ± 24 | 31.8 ± 3.6
c1cc(OCC2CO2)ccc1Cc1ccc(OCC2CO2)cc1 (stereo unspecified) [Bis[4-(glycidyloxy)phenyl]methane] | -2.51 ± 4.3 | -4.82 ± 8.3 | -12 ± 59 | 62.7 ± 21 | 57 ± 12
CC(=O)Oc1ccc(C(c2ccc(OC(C)=O)cc2)c2ccccn2)cc1 [Bisacodyl] | 0 | 3.97 ± 6.9 | 30.5 ± 18 | 26.8 ± 7.9 | –
CCC(C)(c1ccc(O)cc1)c1ccc(O)cc1 [Bisphenol B] | 9.18 ± 8.1 | 2.81 ± 4.9 | 38.7 ± 21 | 31.9 ± 11 | –
CC(C)C[C@H](NC(=O)[C@H](Cc1ccccc1)NC(=O)c1cnccn1)B(O)O [Bortezomib] | 504 ± 17 | 8.93 ± 9.3 | -42.8 ± 3.7 | -35 ± 19 | 0.33 ± 0.02
COc1cc(Nc2c(C#N)cnc3cc(OCCCN4CCN(C)CC4)c(OC)cc23)c(Cl)cc1Cl [Bosutinib] | 7.85 ± 7.5 | 32.5 ± 12 | -18.8 ± 8.1 | 120 ± 29 | 12.6
CCCCCCCC(=O)Oc1c(Br)cc(C#N)cc1Br [Bromoxynil octanoate] | 0 | -2.83 ± 4.9 | 2.61 ± 12 | -17.8 ± 10 | –
C=C(C)C(=O)Nc1ccc(Cl)c(Cl)c1 [Chloranocryl] | 1.33 ± 7.2 | 4.33 ± 7.5 | 23.2 ± 7 | 82.1 ± 16 | –
